Key:
AMBEL (Ragweed, Common) = test: Postemergence herbicidal evaluation; assay type: in vivo, Ambrosia artemisifolia
Summary of the method: (§1)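 Visual 0–9 rating versus control (stand, vigor, malformation, size, chlorosis, overall appearance), taken four to five weeks post-spray. Two-week-old seedlings received roughly 0.0156–0.500 kg/ha active in acetone/water (50/50) with 0.5% TWEEN 20 via nozzle at 40 psi.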

CASOB (Sicklepod) = test: Postemergence herbicidal evaluation; assay type: in vivo, Cassia obtusifolia
Summary of the method: as §1

GALAP (Galium) [1] = test: Postemergence herbicidal evaluation; assay type: in vivo, Galium aparine
Summary of the method: as §1

[2] = system: GLXMAW (Soybean, Williams); test: Postemergence herbicidal evaluation; assay type: in vivo, Glycine max, (L.) Merr. cv Williams
Summary of the method: as §1

[3] = system: TRZAWR (Wheat, Winter, cv Riband); test: Postemergence herbicidal evaluation; assay type: in vivo, Triticum aestivum
Summary of the method: as §1

GALAP (Galium) [4] = test: Preemergence herbicidal evaluation; assay type: in vivo, Galium aparine; conditions: rated 4-5 weeks after treatment
Summary of the method: (§2)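 Scores use a 0–9 visual scale covering stand, vigor, malformation, size and chlorosis relative to controls, rated four to five weeks after treatment. Before emergence, soil-planted seeds were sprayed with compound in aqueous acetone at roughly 0.0156–0.500 kg/ha and held in the greenhouse.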

SETVI (Foxtail, Green) = test: Preemergence herbicidal evaluation; assay type: in vivo, Setaria viridis; conditions: rated 4-5 weeks after treatment
Summary of the method: as §2

ORYSAT (Rice, Tebonnet) = test: Preemergence herbicidal evaluation; assay type: in vivo, Oryza sativa, (L.) Tebonnet; conditions: rated 4-5 weeks after treatment
Summary of the method: as §2

[5] = system: ECHORC (Watergrass (Calif.)); test: Preemergence weed control under flooded paddy conditions; assay type: in vivo, Echinochloa oryzoides; conditions: rated 3-4 weeks after treatment
Summary of the method: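 First, seeds or propagules go into the top 0.5 cm of silt loam; next, water is held 1.5 to 3 cm over the soil; then compound (50/50 acetone/water) is pipetted into it at about 0.0313 to 0.500 kg/ha; finally plants are rated visually 0-9 after three to four weeks.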

CYPSE (Flatsedge) = test: as above; assay type: in vivo, Cyperus serotinus; conditions: rated 3-4 weeks after treatment
Summary of the method: (§3)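 Ratings on a 0-9 visual scale cover stand, vigor, malformation, size, chlorosis and overall appearance relative to a control, taken three to four weeks post-treatment. Application was into flood water over freshly sown silt loam at roughly 0.0313 to 0.500 kg/ha.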

MOOVA (Monochoria) = test: as above; assay type: in vivo, Monochoria vaginalis; conditions: rated 3-4 weeks after treatment
Summary of the method: as §3

[6] = system: SAGPY (Arrowhead (Pygmaea)); test: as above; assay type: in vivo, Sagittaria pygmaea; conditions: rated 3-4 weeks after treatment
Summary of the method: as §3

[7] = system: ECHORC (Watergrass (Calif.)); test: Postemergence weed control under flooded paddy conditions; assay type: in vivo, Echinochloa oryzoides; conditions: postemergence weeds, 3-4 weeks after treatment
Summary of the method: (§4)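 Injury ratings (0–9 scale covering stand, vigor, malformation, size, chlorosis and overall appearance versus control) were made three to four weeks after treatment. Test material, about 0.0313 to 0.500 kg/ha a.i. in 50/50 v/v aqueous/acetone, was added to flood water 1.5 to 3 cm deep over 3 to 5 cm weeds and 1.5 to 2.5 leaf rice.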

[8] = system: SAGPY (Arrowhead (Pygmaea)); test: as above; assay type: in vivo, Sagittaria pygmaea; conditions: postemergence weeds, 3-4 weeks after treatment
Summary of the method: as §4

CCOC(=O)CN1C(=O)CS(=O)(=O)C1=Nc1cc(-n2c(=O)cc(C(F)(F)F)n(C)c2=O)c(F)cc1Cl [Compound 46, 2-{{2-Chloro-5-[3,6-dihydro-3-methyl-2,6-dioxo-4-(trifluoromethyl)-1(2H)-pyrimidinyl]-4-fluoro-phenyl}imino}-4-oxo-3-thiazolidineacetic acid, ethyl ester, 1,1-dioxide]
Postemergence herbicidal rating AMBEL (AMBEL (Ragweed, Common); Rate 0.0313 kg/ha): 0.0
Postemergence herbicidal rating AMBEL (AMBEL (Ragweed, Common); Rate 0.0625 kg/ha): 5.0
Postemergence herbicidal rating CASOB (CASOB (Sicklepod); Rate 0.0313 kg/ha): 0.0
Postemergence herbicidal rating CASOB (CASOB (Sicklepod); Rate 0.0625 kg/ha): 0.0
Postemergence herbicidal rating GALAP (GALAP (Galium) [1]; Rate 0.0313 kg/ha): 0.0
Postemergence herbicidal rating GALAP (GALAP (Galium) [1]; Rate 0.0625 kg/ha): 0.0
Postemergence herbicidal rating GLXMAW ([2]; Rate 0.0313 kg/ha): 5.0
Postemergence herbicidal rating GLXMAW ([2]; Rate 0.0625 kg/ha): 5.5
Postemergence herbicidal rating TRZAWR ([3]; Rate 0.0313 kg/ha): 2.0
Postemergence herbicidal rating TRZAWR ([3]; Rate 0.0625 kg/ha): 3.0
Preemergence herbicidal rating GALAP (GALAP (Galium) [4]; rate 0.1250 kg/ha): 0.0
Preemergence herbicidal rating GALAP (GALAP (Galium) [4]; rate 0.2500 kg/ha): 0.0
Preemergence herbicidal rating SETVI (SETVI (Foxtail, Green); rate 0.1250 kg/ha): 0.0
Preemergence herbicidal rating SETVI (SETVI (Foxtail, Green); rate 0.2500 kg/ha): 0.0
Preemergence herbicidal rating ORYSAT (ORYSAT (Rice, Tebonnet); rate 0.1250 kg/ha): 0.0
Preemergence herbicidal rating ORYSAT (ORYSAT (Rice, Tebonnet); rate 0.2500 kg/ha): 0.0
Herbicidal rating ECHORC ([5]; 0.0313 kg/ha): 0.0
Herbicidal rating ECHORC ([5]; 0.0625 kg/ha): 0.0
Herbicidal rating ECHORC ([5]; 0.1250 kg/ha): 0.0
Herbicidal rating ECHORC ([5]; 0.2500 kg/ha): 4.0
Herbicidal rating CYPSE (CYPSE (Flatsedge); 0.0313 kg/ha): 0.0
Herbicidal rating CYPSE (CYPSE (Flatsedge); 0.0625 kg/ha): 0.0
Herbicidal rating CYPSE (CYPSE (Flatsedge); 0.1250 kg/ha): 0.0
Herbicidal rating CYPSE (CYPSE (Flatsedge); 0.2500 kg/ha): 6.0
Herbicidal rating MOOVA (MOOVA (Monochoria); 0.0313 kg/ha): 3.0
Herbicidal rating MOOVA (MOOVA (Monochoria); 0.0625 kg/ha): 4.0
Herbicidal rating MOOVA (MOOVA (Monochoria); 0.1250 kg/ha): 6.0
Herbicidal rating MOOVA (MOOVA (Monochoria); 0.2500 kg/ha): 7.0
Herbicidal rating SAGPY ([6]; 0.0313 kg/ha): 0.0
Herbicidal rating SAGPY ([6]; 0.0625 kg/ha): 0.0
Herbicidal rating SAGPY ([6]; 0.1250 kg/ha): 0.0
Herbicidal rating SAGPY ([6]; 0.2500 kg/ha): 3.0
Herbicidal rating ECHORC ([7]; rate 0.0313 kg/ha): 0.0
Herbicidal rating ECHORC ([7]; rate 0.0625 kg/ha): 0.0
Herbicidal rating ECHORC ([7]; rate 0.1250 kg/ha): 0.0
Herbicidal rating ECHORC ([7]; rate 0.2500 kg/ha): 4.0
Herbicidal rating SAGPY ([8]; rate 0.0313 kg/ha): 0.0
Herbicidal rating SAGPY ([8]; rate 0.0625 kg/ha): 0.0
Herbicidal rating SAGPY ([8]; rate 0.1250 kg/ha): 0.0
Herbicidal rating SAGPY ([8]; rate 0.2500 kg/ha): 3.0

CCOC(=O)CN1C(=O)C(CCO)S/C1=N/c1cc(-n2c(=O)cc(C(F)(F)F)n(C)c2=O)c(F)cc1Cl (centres unmarked) [Compound 49, Ethyl 2-{{2-chloro-5-[3,6-dihydro-3-methyl-2,6-dioxo-4-(trifluoromethyl)-1(2H)-pyrimidinyl]-4-fluorophenyl}imino}-5-(hydroxyethyl)-4-oxo-3-thiazolidineacetate]
Postemergence herbicidal rating AMBEL (AMBEL (Ragweed, Common); Rate 0.0313 kg/ha): 9.0
Postemergence herbicidal rating AMBEL (AMBEL (Ragweed, Common); Rate 0.0625 kg/ha): 9.0
Postemergence herbicidal rating AMBEL (AMBEL (Ragweed, Common); rate 0.0156 kg/ha): 9.0
Postemergence herbicidal rating CASOB (CASOB (Sicklepod); Rate 0.0313 kg/ha): 3.0
Postemergence herbicidal rating CASOB (CASOB (Sicklepod); Rate 0.0625 kg/ha): 3.0
Postemergence herbicidal rating CASOB (CASOB (Sicklepod); rate 0.0156 kg/ha): 2.0
Postemergence herbicidal rating GALAP (GALAP (Galium) [1]; Rate 0.0313 kg/ha): 4.0
Postemergence herbicidal rating GALAP (GALAP (Galium) [1]; Rate 0.0625 kg/ha): 4.0
Postemergence herbicidal rating GALAP (GALAP (Galium) [1]; rate 0.0156 kg/ha): 2.0
Postemergence herbicidal rating GLXMAW ([2]; Rate 0.0313 kg/ha): 7.5
Postemergence herbicidal rating GLXMAW ([2]; Rate 0.0625 kg/ha): 8.0
Postemergence herbicidal rating GLXMAW ([2]; rate 0.0156 kg/ha): 7.5
Postemergence herbicidal rating TRZAWR ([3]; Rate 0.0313 kg/ha): 4.5
Postemergence herbicidal rating TRZAWR ([3]; Rate 0.0625 kg/ha): 4.5
Postemergence herbicidal rating TRZAWR ([3]; rate 0.0156 kg/ha): 4.0
Preemergence herbicidal rating GALAP (GALAP (Galium) [4]; rate 0.0156 kg/ha): 0.0
Preemergence herbicidal rating GALAP (GALAP (Galium) [4]; rate 0.0313 kg/ha): 0.0
Preemergence herbicidal rating GALAP (GALAP (Galium) [4]; rate 0.0625 kg/ha): 7.0
Preemergence herbicidal rating GALAP (GALAP (Galium) [4]; rate 0.1250 kg/ha): 7.0
Preemergence herbicidal rating GALAP (GALAP (Galium) [4]; rate 0.2500 kg/ha): 9.0
Preemergence herbicidal rating SETVI (SETVI (Foxtail, Green); rate 0.0156 kg/ha): 0.0
Preemergence herbicidal rating SETVI (SETVI (Foxtail, Green); rate 0.0313 kg/ha): 4.0
Preemergence herbicidal rating SETVI (SETVI (Foxtail, Green); rate 0.0625 kg/ha): 5.0
Preemergence herbicidal rating SETVI (SETVI (Foxtail, Green); rate 0.2500 kg/ha): 5.0
Preemergence herbicidal rating ORYSAT (ORYSAT (Rice, Tebonnet); rate 0.0156 kg/ha): 0.0
Preemergence herbicidal rating ORYSAT (ORYSAT (Rice, Tebonnet); rate 0.0313 kg/ha): 0.0
Preemergence herbicidal rating ORYSAT (ORYSAT (Rice, Tebonnet); rate 0.0625 kg/ha): 0.0
Preemergence herbicidal rating ORYSAT (ORYSAT (Rice, Tebonnet); rate 0.1250 kg/ha): 5.0
Preemergence herbicidal rating ORYSAT (ORYSAT (Rice, Tebonnet); rate 0.2500 kg/ha): 5.0
Herbicidal rating ECHORC ([5]; 0.0313 kg/ha): 0.0
Herbicidal rating ECHORC ([5]; 0.0625 kg/ha): 2.0
Herbicidal rating ECHORC ([5]; 0.1250 kg/ha): 5.0
Herbicidal rating ECHORC ([5]; 0.2500 kg/ha): 7.0
Herbicidal rating CYPSE (CYPSE (Flatsedge); 0.0313 kg/ha): 2.0
Herbicidal rating CYPSE (CYPSE (Flatsedge); 0.0625 kg/ha): 3.0
Herbicidal rating CYPSE (CYPSE (Flatsedge); 0.2500 kg/ha): 4.0
Herbicidal rating MOOVA (MOOVA (Monochoria); 0.0313 kg/ha): 9.0
Herbicidal rating MOOVA (MOOVA (Monochoria); 0.0625 kg/ha): 9.0
Herbicidal rating MOOVA (MOOVA (Monochoria); 0.1250 kg/ha): 9.0
Herbicidal rating MOOVA (MOOVA (Monochoria); 0.2500 kg/ha): 9.0
Herbicidal rating SAGPY ([6]; 0.0313 kg/ha): 2.0
Herbicidal rating SAGPY ([6]; 0.0625 kg/ha): 4.0
Herbicidal rating SAGPY ([6]; 0.1250 kg/ha): 6.0
Herbicidal rating SAGPY ([6]; 0.2500 kg/ha): 7.0
Herbicidal rating ECHORC ([7]; rate 0.0313 kg/ha): 0.0
Herbicidal rating ECHORC ([7]; rate 0.0625 kg/ha): 2.0
Herbicidal rating ECHORC ([7]; rate 0.1250 kg/ha): 5.0
Herbicidal rating ECHORC ([7]; rate 0.2500 kg/ha): 7.0
Herbicidal rating SAGPY ([8]; rate 0.0313 kg/ha): 2.0
Herbicidal rating SAGPY ([8]; rate 0.0625 kg/ha): 4.0
Herbicidal rating SAGPY ([8]; rate 0.1250 kg/ha): 6.0
Herbicidal rating SAGPY ([8]; rate 0.2500 kg/ha): 7.0

Source: patent US20020137929A1, “1 - (3-heterocyclylphenyl) isothiourea, -isourea, -guanidine and -amidine herbicidal agents” (Intellectual Property Department, BASF Aktiengesellschaft, priority 1998, published 2002)
